Source: patent US9872840B2, “Effect of garcinol in delaying the progression of diabetic nephropathy” (Delhi Institute of Pharmaceutical Sciences and Research, priority 2013, dated 2018)

How the values were obtained:
STZ diabetic rats [1] = assay: Fasting and post prandial blood glucose in STZ diabetic rats; format: in vivo, rat; parameters: Reduction of post prandial glucose: concentration or dose not given beside the values; details: for Reduction of fasting blood glucose / Reduction of post prandial glucose: 8 weeks treatment; for Reduction of post prandial glucose: compared to diabetic group; for Blood glucose, fasting, before treatment / Blood glucose, post prandial, before treatment: baseline before treatment; for Blood glucose, fasting, before treatment / Blood glucose, post prandial, before treatment / Blood glucose, fasting, after treatment / Blood glucose, post prandial, after treatment: mean ± S.E.M., eight animals; for Blood glucose, fasting, after treatment / Blood glucose, post prandial, after treatment: once daily for 8 weeks, garcinol 200 mg/kg, olmesartan 6 mg/kg/day, glimepiride 1 mg/kg/day
Protocol: (§1) The Garcinol used for the experimental studies was bought from Sami Labs, Hyderabad. It was administered at the dose of 200 mg/kg dispersed in water with 1% CMC. Further, the experimental procedures were conducted according to the Institutional Animal Ethical Committee (protocol no. DIPSAR/IAEC/2009/01) and CPCSEA guidelines. All rats were housed under conventional conditions with controlled temperature, humidity and light (12 hours light-dark cycle), and were provided with a standard commercial diet and water (ad libitum). Healthy albino rats of Wistar strain were kept for breeding. Diabetes was induced by administration of streptozotocin (STZ, 90 mg/kg, i.p.) to a group of 2 day old pups. Age-matched control rats were given an equal volume of vehicle and considered as ‘Normal’ group of rats. Six weeks after injection, the blood glucose level was measured from the tail vein. Rats with a fasting blood glucose level over 160 mg/dl were considered as diabetic.
(§2) After 6 weeks, four groups of animals, each comprising of 8 animals were made. The groups were assigned to receive vehicle or garcinol (200 mg/kg dispersed in 1% CMC); Olmesartan (6 mg/kg/day) and Glimepiride (1 mg/kg/day) once daily for 8 weeks. After the final drug administration, body weight was measured and blood samples were collected in both fasting and post prandial conditions. The kidney of treated and untreated animals were isolated and fixed in 10% buffered formalin solution to prepare paraffin sections.
However, the decrease was less than antidiabetic reference glimepiride treatment (˜27%). Moreover, the reduction of post prandial glucose with garcinol treatment (˜36%) was more than olmesartan (˜10%) but was lower than observed with glimepiride treatment (almost 43%) when compared to diabetic group.

STZ diabetic rats [2] = assay: Homeostatic model assessment (HOMA-Index, β-cell function) in STZ diabetic rats; format: in vivo, rat; details: STZ diabetic rats after treatment; mean ± S.E.M., five animals
Description: The homeostatic model assessment (HOMA) is a method used to quantify insulin resistance and beta-cell function (Homeostasis model assessment: insulin resistance and beta-cell function from fasting plasma glucose and insulin concentrations in man. Diabetologia 28: 412-9.). The approximating equation for insulin resistance, in the early model, used a fasting plasma sample, and was derived by use of the insulin-glucose product, divided by a constant. HOMA-IR=(Glucose×Insulin)/405;HOMA-% B=([…])/(Glucose-63)
Where IR is insulin resistance and % B is the β-cell function where Glucose is given in mg/dl and Insulin is given in μU/mL (both during fasting). Garcinol inhibited insulin resistance assessed by HOMA-Index with significance when compared with the diabetic group.

STZ diabetic rats [3] = assay: Hemodynamic parameters by tail cuff apparatus; format: in vivo, rat
Protocol: Hemodynamic parameters were measured using tail cuff apparatus (Non-invasive measurement of Blood Pressure-Kent Scientific, USA). Garcinol was also observed to improve the systolic, diastolic and mean Blood Pressure.

STZ diabetic rats [4] = assay: Renal function and biochemical parameters in plasma/serum of STZ diabetic rats; format: in vivo, rat; details: 8 weeks, garcinol 200 mg/kg, olmesartan 6 mg/kg, glimepiride 1 mg/kg
Protocol: as §1, §2
Biochemical estimation for glucose, insulin, albumin and total proteins; glomerular proteins (viz β-2 microglobulin, serum cystatin c and serum creatinine) for the determination of GFR; inflammatory cytokines and growth factors like Tumor necrosis factor (TNF-α), Nitric Oxide (NO), Transforming growth factor (TGF-β1) and Vascular endothelial growth factor (VEGF) and kidney specific molecular markers involving adiponectin and erythropoietin were made in plasma/serum.

STZ diabetic rats [5] = assay: Kidney histopathology, glomerulosclerotic index (periodic acid-Schiff); format: in vivo, rat; details: 8 weeks; for GSI (glomerulosclerotic index): kidney of STZ diabetic rats, sclerosis graded 0 to 4, garcinol 200 mg/kg, olmesartan 6 mg/kg, glimepiride 1 mg/kg
Description: (§3) Kidney sections were stained with periodic acid-Schiff's reagent and Masson's modified trichrome to assess glomerulosclerosis and collagenous tubulointerstitial matrix, respectively.
In 4 μm kidney sections stained with periodic acid-Schiff's reagent, 150 glomeruli from each animal were examined. The extent of sclerosis in each glomerulus was subjectively graded on a scale of 0 to 4, with the following grades: grade 0 normal, grade 1 sclerotic area <25% (minimal), grade 2 sclerotic area 25-50% (moderate), grade 3 sclerotic area 50-75% (moderate to severe) and grade 4 sclerotic area 75-100% (severe). A glomerulosclerotic index was then calculated using the formula: […]
Where GSI is glomerulosclerotic index, Fi is the % of glomeruli in the rat with a given score (i).

STZ diabetic rats [6] = assay: Tubulointerstitial matrix index (Masson's trichrome); format: in vivo, rat; details: kidney of STZ diabetic rats, 8 weeks; semi-quantified; garcinol 200 mg/kg, olmesartan 6 mg/kg, glimepiride 1 mg/kg
Protocol: as §3
The accumulation of matrix within the tubulointerstitial was assessed on Masson's trichrome stained sections. Blue area on a trichrome-stained section was selected for its color range and the proportional area of tissue with this range of color was then semi-quantified as tubulointerstitial matrix index (TIMI).

rat nephrin = assay: Immunohistochemistry for nephrin in kidney; format: in vivo; details: kidney of STZ diabetic rats, 8 weeks; garcinol 200 mg/kg, olmesartan 6 mg/kg, glimepiride 1 mg/kg
Protocol: Immunohistochemistry was done as previously described according to a modified method using a Polyclonal (C-Terminus) Antibody which is identical to rat nephrin. These experiments were done using 4 micron […] kidney sections, as previously reported. Paraffin-embedded tissues sections were deparaffinized in microwave oven for 3 minutes. The sections were rehydrated in graded series of xylene and alcohols. Endogenous peroxidase activity was blocked by 3% hydrogen peroxide in distilled water for 15 minutes. Antigen retrieval was achieved by steam heating in a solution of citrate buffer, pH 6.0 for 30 minutes. Sections were blocked with 10% normal goat serum for polyclonal antibodies. Sections were then incubated for one hour with primary antibody Polyclonal (C-Terminus) Antibody which is identical to rat nephrin. The sections were then incubated in avidin-biotin complex at 1:25 dilution for 30 min at room temperature and developed using diaminobenzidine (DAB) as chromogen. After washing, the sections were counter-stained with hematoxylin and coverslipped. Negative controls were carried out by incubation in the absence of the primary antibody. The quantification of nephrin was done using point counting technique for each animal as described in established method. Davis B J, Johnston C I, Burrell, L M, Burns W C, Kubota E, Cao Z, Cooper M E, Allen T J. Renoprotective effects of vasopeptidase inhibition in an experimental model of diabetic nephropathy. Diabetologia. 2003; 46(7): 961-71.

STZ diabetic rats [7] = assay: DNA fragmentation assay (TUNEL) for apoptosis in kidney; format: in vivo, rat; details: for Apoptosis: kidney of STZ diabetic rats, 8 weeks, garcinol 200 mg/kg, olmesartan 6 mg/kg, glimepiride 1 mg/kg
Protocol: For detection and localization of apoptosis in kidney, the technique of terminal deoxynucleotidyl transferase-mediated dUTP nick end labeling (TUNEL) (Apo-BrdU-IHC™ In Situ DNA Fragmentation Assay Kit, Biovison, USA) were employed. Briefly, sections were deparaffinized, hydrated, and digested with proteinase K (20 μg/ml), and then added biotinylated dUTP to the 3′ end of DNA fragments by incubating sections in 0.05 mol/l Tris-HCl buffer (pH 7.6) with 0.03 U/μl TdT and 0.04 nmol/μl biotin-11-dUTP at 37° C. for 1 h. The sections were rinsed in PBS. Endogenous peroxidase was blocked with 0.3% H2O2 in distilled H2O. The sections were rinsed with PBS and covers with 2% blocking solution in 0.1 mol/l sodium maleate to reduce background staining. The sections were then incubated with avidin-peroxidase complexes in PBS (1:50) for 30 min and rinsed with PBS (3×5 min). Peroxidase activity was visualized with 3,3′-diaminobenzidine until the brown product was clearly visible. The sections were then counterstained with methyl green. The positive apoptotic cells were the cells with brown nucleus 2.10.

[8] = kidney of diabetic rats, FIG. 4

| SMILES | Reduction of fasting blood glucose (STZ diabetic rats [1]) [%] | Reduction of post prandial glucose (STZ diabetic rats [1]) [%] | Blood glucose, fasting, before treatment (STZ diabetic rats [1]) [mg/dL] | Blood glucose, post prandial, before treatment (STZ diabetic rats [1]) [mg/dL] | Blood glucose, fasting, after treatment (STZ diabetic rats [1]) [mg/dL] | Blood glucose, post prandial, after treatment (STZ diabetic rats [1]) [mg/dL] | % BETA-CELL FUNCTION (STZ diabetic rats [2]) | HOMA-INDEX (STZ diabetic rats [2]) | Adiponectin (STZ diabetic rats [4]) [µg/mL] | Beta-2 microglobulin (GFR) (STZ diabetic rats [4]) [µg/mL] | Erythropoietin (STZ diabetic rats [4]) [mlU/ml] | Nitric Oxide (STZ diabetic rats [4]) [nmol/µL] | Plasma Insulin (STZ diabetic rats [4]) [ng/mL] | Serum Creatinine (GFR) (STZ diabetic rats [4]) [mg/dL] | Serum CystatinC (GFR) (STZ diabetic rats [4]) [ng/mL] | TGF-β (STZ diabetic rats [4]) [pg/mL] | TNF-α (STZ diabetic rats [4]) [pg/mL] | Total Proteins (STZ diabetic rats [4]) [mg/mL] | VEGF (STZ diabetic rats [4]) [pg/mL] | GSI (glomerulosclerotic index) (STZ diabetic rats [5]) | other results |
| --- | --- | --- | --- | --- | --- | --- | --- | --- | --- | --- | --- | --- | --- | --- | --- | --- | --- | --- | --- | --- | --- |
| C=C(C)[C@@H](CC=C(C)C)C[C@@]12C[C@@H](CC=C(C)C)C(C)(C)[C@@](CC=C(C)C)(C(=O)C(C(=O)c3ccc(O)c(O)c3)=C1O)C2=O [Garcinol] | ~18 | ~36 | 166.2 ± 4.9 | 287 ± 24.7 | 136.2 ± 5.86 | 190 ± 5.27 | 31.4 ± 3.17 | 1.55 ± 0.0827 | 3.297 ± 0.56 | 0.3488 ± 0.12 | 0.3508 ± 0.029 | 0.32 ± 0.026 | 12.13 ± 1.17 | 1.804 ± 0.36 | 0.4098 ± 0.028 | 3.908 ± 0.82 | 0.04059 ± 0.0092 | 2.05 ± 0.14 | 57.21 ± 3.89 | 1.4 | Diastolic blood pressure, after Garcinol administration (STZ diabetic rats [3]; after Garcinol administration): 112; Mean blood pressure, after Garcinol administration (STZ diabetic rats [3]; after Garcinol administration): 125; Systolic blood pressure, after Garcinol administration (STZ diabetic rats [3]; after Garcinol administration): 153; Diastolic blood pressure, before treatment (STZ diabetic rats [3]; before treatment): 127; Mean blood pressure, before treatment (STZ diabetic rats [3]; before treatment): 139; Systolic blood pressure, before treatment (STZ diabetic rats [3]; before treatment): 165; TIMI (tubulointerstitial matrix index) (STZ diabetic rats [6]): 2; Nephrin (rat nephrin): 50 % FA; Apoptosis (STZ diabetic rats [7]): 20 % FA |
| CCCc1nc(C(C)(C)O)c(C(=O)OCc2oc(=O)oc2C)n1Cc1ccc(-c2ccccc2-c2nnn[nH]2)cc1 [Olmesartan, olmesartan medoxomil] | 14 | ~10 | 162.7 ± 4.34 | 288 ± 6.82 | 139.7 ± 5.05 | 259 ± 7.16 | 21.7 ± 1.98 | 1.7 ± 0.095 | 0.93 ± 0.18 | 0.6529 ± 0.21 | 0.2657 ± 0.047 | 0.34 ± 0.097 | 12.74 ± 1.48 | 2.063 ± 0.41 | 0.4617 ± 0.048 | 5.963 ± 0.896 | 0.05665 ± 0.013 | 2.123 ± 0.11 | 66.3 ± 1.14 | 1.4 | Histopathological changes in kidney (qualitative) (STZ diabetic rats [5]; [8]): improvement in tubular injury was visible; TIMI (tubulointerstitial matrix index) (STZ diabetic rats [6]): 1; Nephrin (rat nephrin): 62.5 % FA; Apoptosis (STZ diabetic rats [7]): 40 % FA; DNA fragmentation / apoptosis in kidney (qualitative) (STZ diabetic rats [7]; [8]): decrease in the DNA fragmentation was clearly observed qualitatively |
